Patent publication US8637511B2, “Aminopyrimidines useful as kinase inhibitors” (Vertex Pharmaceuticals Incorporated, priority 2005, dated 2014)

Target: T1, human Itk kinase (Homo sapiens, UniProt Q08881)
T1 sequence (Q08881 1-620): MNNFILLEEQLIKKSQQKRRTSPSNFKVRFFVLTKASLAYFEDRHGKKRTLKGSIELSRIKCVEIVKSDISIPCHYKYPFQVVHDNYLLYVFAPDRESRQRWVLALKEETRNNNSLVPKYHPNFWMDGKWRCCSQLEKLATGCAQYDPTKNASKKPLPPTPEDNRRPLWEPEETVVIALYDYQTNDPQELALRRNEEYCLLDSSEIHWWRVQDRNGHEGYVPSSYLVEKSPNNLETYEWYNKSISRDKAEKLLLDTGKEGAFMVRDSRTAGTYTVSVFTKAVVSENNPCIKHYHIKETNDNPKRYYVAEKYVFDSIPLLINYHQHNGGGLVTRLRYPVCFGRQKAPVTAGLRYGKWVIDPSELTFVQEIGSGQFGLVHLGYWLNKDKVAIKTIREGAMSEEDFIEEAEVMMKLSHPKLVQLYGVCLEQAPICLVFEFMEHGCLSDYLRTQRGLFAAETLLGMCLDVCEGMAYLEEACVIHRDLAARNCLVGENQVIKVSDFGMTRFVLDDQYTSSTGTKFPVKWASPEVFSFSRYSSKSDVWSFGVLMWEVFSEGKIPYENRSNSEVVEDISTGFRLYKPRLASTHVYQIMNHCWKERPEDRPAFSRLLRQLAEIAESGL
Test: Itk inhibition assay: radioactivity-based assay
Type: biochemical
Conditions: Ki(app)
Procedure, shortened: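 50 nM Itk with 3 μM SAM68 Δ332-443 peptide and 7.5 μM [γ-33P]ATP in MOPS pH 7.0, MgCl2, 25° C; compound (top 50 μM final, 2-fold dilutions, 2% DMSO) preincubated 10 min, reaction 10 min. Phosphocellulose filter capture and scintillation counting; Ki(app) by non-linear regression of initial rates.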

Row | Structure (SMILES) | Ki
1 | CC(C)(C)c1cc(Nc2cc(N3CCC3)nc(Sc3ccc(NC(=O)c4ccccc4Cl)cc3)n2)n[nH]1 [Compound 69] | 1000 to 2000 nM
2 | Cc1cc(Nc2cc(N3CCC3)nc(Sc3ccc(NC(=O)Cc4ccccc4Cl)cc3)n2)[nH]n1 [Compound 57] | 100 to 1000 nM
3 | COCc1cc(Nc2cc(N3CCC3)nc(Sc3ccc(NC(=O)c4ccccc4Cl)cc3)n2)n[nH]1 [Compound 82] | 100 to 1000 nM
4 | CCC(=O)Nc1ccc(Sc2nc(Nc3cc(C)n[nH]3)cc(N3CC(OC(C)(C)C)C3)n2)cc1 [Compound 67] | 100 to 1000 nM
5 | Cc1cc(Nc2cc(N3CC(OC(C)C)C3)nc(Sc3ccc(NC(=O)c4ccccc4Cl)cc3)n2)n[nH]1 [Compound 38] | ≤ 100 nM
6 | CCC(=O)Nc1ccc(Sc2nc(Nc3cc(C)n[nH]3)cc(N3CC(N4CCOCC4)C3)n2)cc1 [Compound 68] | 100 to 1000 nM
7 | Cc1cc(Nc2cc(N3CC(C)(O)C3)nc(Sc3ccc(NC(=O)c4ccccc4Cl)cc3)n2)[nH]n1 [Compound 50] | ≤ 100 nM
8 | COC1(C)CN(c2cc(Nc3cc(C)n[nH]3)nc(Sc3ccc(NC(=O)c4ccccc4Cl)cc3)n2)C1 [Compound 51] | ≤ 100 nM
9 | Cc1cc(Nc2cc(N3CCC3)nc(Sc3ccc(NC(=O)c4cnccc4C(F)(F)F)cc3)n2)[nH]n1 [Compound 59] | 100 to 1000 nM
10 | CCOC1CN(c2cc(Nc3cc(C)[nH]n3)nc(Sc3ccc(NC(=O)c4ccccc4Cl)cc3)n2)C1 [Compound 37] | ≤ 100 nM
